Measurements from patent US11149020B2, “MAP kinase modulators and uses thereof” (The Trustees of Columbia University in the City of New York, priority 2013, dated 2021).

Experiments:
[1] = tested on: APP/PS1 transgenic and APP/PS1 knock-in mice; experiment: β-amyloid plaque count, 6E10 immunohistochemistry; format: in vivo, mouse
Method: Histopathology. Immunohistochemistry was performed using the Ventana BenchMark Ultra automated platform. Tissue sections were first deparaffinized using Ventana's “ez-prep” solution. Antigen retrieval was performed by treatment at 95° C. for 54 minutes using Ventana's CC1 (pH 7.3) solution, followed by treatment with 0.3% hydrogen peroxide to block endogenous peroxidase. Tissue sections were then incubated in protein-free block (Biocare's background sniper) for 15 min to inhibit nonspecific binding. Primary antibody (anti-Aβ 6E10 at 1:400, Biocare Medical) was incubated for 32 min at room temperature. […] A board-certified neuropathologist, who was blinded to the treatment versus the control group, analyzed a sagittal section from each mouse and counted the total number of well-formed β-amyloid plaques.
MW-150 treatment improves cognitive performance in the absence of effect on Aβ plaque burden. […] (FIG. 26C) Quantification by a board-certified neuropathologist blinded to the treatment groups was done by analysis of a brain sagittal section from each mouse in which the total number of well-formed β-amyloid plaques in the entire section were counted. […] (FIG. 26D) In a separate experiment with APP/PS1 knock-in (KI) mice, Aβ plaques were quantified from KI mice treated with MW-150 or vehicle.

[2] = tested on: APP/PS1 mice; experiment: RAWM in APP/PS1 mice; conditions: 2.5 mg/kg, daily, p.o., from 2 months of age
[3] = tested on: APP/PS1 mice; experiment: LTP in APP/PS1 mice; format: in vivo, mouse; conditions: 2.5 mg/kg, daily, p.o., from 2 months until 3-4 months of age
[4] = Repeat dosing, observation of adverse events; format: in vivo, mouse; conditions: aged or diseased animals
Source text: Further, the results in a battery of behavioral tests are consistent with a true hippocampus-dependent mechanism of action in attenuation of memory deficits. […] The selective improvement in cognitive behavior was also brought about with no effect on amyloid plaque load (Wilcock, D. M., and Colton, C. A. (2009) Immunotherapy, vascular pathology and microhemorrhages in transgenic mice. CNS Neurol. Disord.: Drug Targets 8, 50-64, herein incorporated by reference in its entirety).

[5] = tested on: synaptic depression induced by OGD; experiment: Oxygen glucose deprivation (OGD) in entorhinal slices, field potentials; conditions: 10 μM, 10 min OGD
Method: Slice preparation. Animals were anesthetized using urethane (20% solution, 1 mL/100 g body weight) via intraperitoneal injection and then decapitated after disappearance of the tail pinch reflex. After brain removal, horizontal sections (400 μm in thickness), containing the entorhinal area, were made on a Vibratome. All steps were performed in ice-cold oxygenated ACSF solution. Before recording, slices were stored for at least 1 h in a recovery chamber containing oxygenated ACSF solution at room temperature. For electrophysiology, slices were perfused at a rate of 2.5-3 mL/min with oxygenated ACSF at 33±1° C. […] The amplitude of FP was monitored every 20 s and averaged every three responses by online data acquisition software. Effects on synaptic function were evaluated either during ischemia (as the average of FPs amplitude during the last 3 min of 10 min OGD application) or as the recovery of FPs calculated as the averaged relative amplitude of FPs respect to the baseline values after reintroduction of regular ACSF (from 41st to 50th min after the end of OGD). […]

[6] = tested on: APP/PS1 mice; experiment: Fear conditioning (contextual and cued) in APP/PS1 mice; conditions: 2.5 mg/kg, daily, p.o., from 2 months of age

With CN1CCN(c2cc(-c3ccncc3)c(-c3ccc4ccccc4c3)nn2)CC1 [27 (MW-150), 6-(4-methylpiperazine-1-yl)-3-(naphthalen-2-yl)-4-(pyridin-4-yl)pyridazine] the amyloid plaque burden [1] was “no effects of MW-150 treatment on the amyloid plaque burden”, the “spatial/reference memory defect (RAWM) in APP/PS1 mice” value [2] was “rescue defects in spatial memory” and the “LTP defect in APP/PS1 mice” value [3] was “rescue defects in LTP”. For the same molecule, the “adverse events with repeat dosing” value [4] was “did not bring about any observed adverse events”, the “synaptic depression induced by OGD” value [5] was “ameliorated” and the “contextual fear memory defect in APP/PS1 mice” value [6] was “rescue the defect in contextual fear learning”.
